The record followed here is publication PMC11460631, “Inhibition of transient receptor potential vanilloid 3 channels by antimalarial hydroxychloroquine alleviates TRPV3-dependent dermatitis” (The Journal of Biological Chemistry, 2024).

The experiment deals with T1, TRPV3 L670 alanine mutation (Homo sapiens, UniProt Q8NET8, L670A).
T1 construct: YFP or GFP; expressed in transfected cells; host or cells: HEK293T
T1 sequence (Q8NET8 1-790 L670A): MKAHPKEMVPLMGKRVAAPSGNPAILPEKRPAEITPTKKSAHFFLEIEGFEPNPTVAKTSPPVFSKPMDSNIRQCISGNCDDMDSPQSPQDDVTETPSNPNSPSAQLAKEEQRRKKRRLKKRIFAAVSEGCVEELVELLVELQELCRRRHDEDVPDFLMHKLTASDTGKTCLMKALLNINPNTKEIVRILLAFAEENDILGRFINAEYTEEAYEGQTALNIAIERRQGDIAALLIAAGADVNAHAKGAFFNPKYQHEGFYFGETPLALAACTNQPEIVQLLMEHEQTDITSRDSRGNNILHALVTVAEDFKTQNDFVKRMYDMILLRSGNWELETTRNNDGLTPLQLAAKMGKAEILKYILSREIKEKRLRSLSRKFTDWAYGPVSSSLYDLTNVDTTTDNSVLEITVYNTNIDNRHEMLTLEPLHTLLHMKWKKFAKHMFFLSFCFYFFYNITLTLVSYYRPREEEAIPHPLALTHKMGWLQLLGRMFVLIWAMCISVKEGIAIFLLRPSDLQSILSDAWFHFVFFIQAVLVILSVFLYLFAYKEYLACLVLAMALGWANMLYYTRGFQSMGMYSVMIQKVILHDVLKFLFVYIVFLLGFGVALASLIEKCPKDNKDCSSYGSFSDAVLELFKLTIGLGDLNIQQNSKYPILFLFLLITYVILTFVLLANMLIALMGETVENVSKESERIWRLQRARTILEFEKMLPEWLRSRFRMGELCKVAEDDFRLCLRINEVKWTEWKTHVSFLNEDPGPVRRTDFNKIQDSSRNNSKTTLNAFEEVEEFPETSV
In words: Whole-cell recording of TRPV3 L670 alanine mutant. It is filed as cell-based. As to conditions: 1 mM 2-APB, ± 80 mV. An excerpt: As we mentioned above, HCQ may act as a pore blocker of TRPV3. To probe the binding configuration of HCQ to TRPV3, we carried out molecular docking using Rosetta suite (https://rosettacommons.org) ([21]) and validated the docking models with point mutations in TRPV3 (Fig. 4A). […] Furthermore, when we introduced L670A to L591A mutant, we also observed a left shift on the concentration–response curve on this double mutant as compared to L591A mutant (Fig. 4H).
Figure 4 Residues of the pore domain are critical for HCQ inhibition on TRPV3.A, left panel, docking model of HCQ to the pore domain of TRPV3 structure (6uw4). Right panels, top view and side view of the HCQ-binding pocket. B-J, representative whole-cell recording of TRPV3 and mutants in response to 1 mM 2-APB, the mixture of 1 mM 2-APB and concentration gradients of HCQ with the holding potential of ± 80 mV. K, concentration–response curves of HCQ in WT TRPV3 and mutants (n = 3–5 cells). L, quantification of the inhibitory ratio of HCQ (100 μM) on WT, L591A, and N671Q. […]
All data from whole-cell recordings were analyzed in Igor Pro (WaveMetrics). IC50 values were determined by fitting the Hill equation to concentration-response relationships. […]

What is called IC50 is the concentration needed to halve the response being measured.

In turn, `CCN(CCO)CCCC(C)Nc1ccnc2cc(Cl)ccc12` (stereo not shown) [HCQ, hydroxychloroquine] had an IC50 of 170 ± 40 nM.
